Here are results for five compounds from US20250339567A1, “COMPOUNDS WITH IMPROVED PHARMACOKINETICS FOR IMAGING AND THERAPY OF CANCER” (priority 2019, published 2025).

For one data set, the target named is T1, GRPR (Homo sapiens, UniProt P30550).
T1 construct: endogenous in cells; host or cells: PC-3 cells
Put plainly: Determination of GRPR affinity (IC50), competition with [D-3-[125I]I-Tyr6]MJ9 on PC-3 cells. The format is binding. As for the experimental part: The reference ligand for IC50 studies ([D-3-[^125I]I-Tyr^6]MJ9) is prepared according to a previously published procedure. Briefly, 0.2 mg of [D-Tyr^6]MJ9 are dissolved in 20 μL Tracepur water and 280 μL TRIS buffer (25 mm TRIS HCl, 0.4 M NaCl, pH=7.9). After addition of the solution to a vial containing 150 μg Iodo-Gen® (1,3,4,6-Tetrachloro-3α,6α-diphenylglycouril, surface-bound), 5.0 μL (16 MBq) [^125I]Nal(74 TBq/mmol, 3.1 GBq/mL, 40 mM NaOH, Hartmann Analytic, Braunschweig, Germany) are added.
The GRPR-positive PC-3 cells are cultured in Dublecco modified Eagle medium/Nutrition Mixture F-12 with Glutamax-I (1:1) (Invitrigon), supplemented with 10% fetal calf serum and maintained at 37° C. in a humidified 5% CO2 atmosphere.
After removal of the culture medium, the cells are washed once with 500 μL of HBSS (Hank's balanced salt solution, Biochrom, Berlin, Germany, with addition of 1% bovine serum albumin (BSA)) and left in 200 μL HBSS (1% BSA) for 9 min at room temperature for equilibration. Next, 25 μL per well of solutions, containing either HBSS (1% BSA) as control or the respective ligand in increasing concentration (10^−10 M-10^−4 M in HBSS), are added with subsequent addition of 25 μL of [D-3-[^125I]I-Tyr^6]MJ9 (2.0 nM) in HBSS (1% BSA).
All experiments are performed in triplicate for each concentration. After 2 h incubation at room temperature, the experiment is terminated by removal of the medium and consecutive rinsing with 300 μL of HBSS. The media of both steps are combined in one fraction and represent the amount of free radiolabeled reference. Afterwards, the cells are lysed with 300 μL of 1 M NaOH for at least 15 min and united with the 300 μL NaOH of the following washing step. Quantification of bound and free radiolabeled reference is accomplished in a γ-counter.
IC50 determination for each ligand was repeated twice.

Data set [1] in a line: n-Octanol-PBS distribution coefficient, log D7.4. The format is physicochemical. As for the experimental part:
Approximately 1 MBq of the labeled tracer was dissolved in 1 mL of a 1:1 mixture (v/v) of phosphate buffered saline (PBS, pH=7.4) and n-octanol in an Eppendorf tube. After vigorous mixing of the suspension for 3 min at room temperature, the vial was centrifuged at 9000 rpm for 5 min (Biofuge 15, Heraus Sepatech, Osterode, Germany) and 200 μL aliquots of both layers were measured in a γ-counter. The experiment was repeated at least four times.

Data set [2] in a line: Plasma studies: metabolic stability in vitro in human plasma (radio RP-HPLC). The format is in vitro ADME. To be noted: Table 1C; 177Lu-labeled, 37° C., 72 ± 2 h; in % (unit assumed). As for the experimental part:
Metabolic stability in vitro was determined applying a procedure published by Linder et al. that was slightly modified. Immediately after labeling, human (200 μL) or murine (100 μL) plasma was added and the mixture was incubated at 37° C. for 72±2 h (or 6±0.5 h). Proteins were precipitated by treatment with ice-cold EtOH (150 μL [human], 100 μL [murine]) and ice-cold MeCN (450 μL [human], 300 μL [murine]), followed by centrifugation for 20 min at 13000 rpm. The supernatants were decanted and further analyzed using radio RP-HPLC. […]

The mark [3] stands for this setting: read-out: IC50 [nM] ± SD (n = 3), ^177Lu-labeled, Table 1C, GRPR affinity.

Broadly, the IC50 is the midpoint of a concentration-inhibition curve.

Where two headings read alike, the source gives them in different places. Starred links: 1 amine or outer side, 2 acyl side, 3 side chain; linkers in the order of their positions; H or OH if unused. Non-standard residues stand in square brackets, D forms with d. Residues, ends and D or L forms follow the SMILES beside them. *: point of attachment. X4 = O=C(O)CN1CCN(CC(=O)O)CCN(CC(=O)NCc2ccc(NC(=O)COCC(=O)*)cc2)CCN(CC(=O)O)CC1; DOTAGA = O=C(O)CN1CCN(CC(=O)O)CCN(C(CCC(=O)*)C(=O)O)CCN(CC(=O)O)CC1; Benzoyl(4-SiFtBu2) = CC(C)(C)[Si](F)(c1ccc(C(=O)*)cc1)C(C)(C)C; d(γGlu) = O=C(O)[C@@H](CCC(=O)[*:2])N[*:1]; Sta = CC(C)C[C@H](N)[C@@H](O)CC(=O)O; Bta = N[C@@H](Cc1csc2ccccc12)C(=O)O; X1 = O=C(CN1CCC(N[*:1])CC1)[*:2]; NHCH(iBu)2 = CC(C)CC(CC(C)C)N*; hSer = N[C@@H](CCO)C(=O)O; dDap = NC[C@@H](N)C(=O)O; CO = O=C([*:1])[*:2]

T1 sequence (P30550 whole entry): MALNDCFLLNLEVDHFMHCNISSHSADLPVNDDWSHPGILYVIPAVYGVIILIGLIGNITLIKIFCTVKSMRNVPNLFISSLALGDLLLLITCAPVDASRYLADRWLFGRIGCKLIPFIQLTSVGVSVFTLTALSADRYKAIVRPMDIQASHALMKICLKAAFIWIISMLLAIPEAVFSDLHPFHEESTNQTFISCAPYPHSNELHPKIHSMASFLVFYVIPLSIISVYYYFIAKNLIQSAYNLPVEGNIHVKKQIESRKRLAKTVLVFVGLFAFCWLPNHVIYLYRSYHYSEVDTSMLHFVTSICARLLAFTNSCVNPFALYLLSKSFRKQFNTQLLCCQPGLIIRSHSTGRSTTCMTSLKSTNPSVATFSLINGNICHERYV

Turning to `CC(C)C[C@H](NC(=O)C[C@H](O)[C@H](CC(C)C)NC(=O)[C@H](Cc1c[nH]cn1)NC(=O)CNC(=O)[C@@H](NC(=O)[C@H](C)NC(=O)[C@H](Cc1c[nH]c2ccccc12)NC(=O)[C@H](CCC(N)=O)NC(=O)[C@@H](Cc1ccccc1)NC(=O)CN1CCC(NC(=O)CN2CCC(NC(=O)CN3CCC(NC(=O)[C@@H](CC(=O)O)NC(=O)[C@@H](CNC(=O)CCC(C(=O)O)N4CCN(CC(=O)O)CCN(CC(=O)O)CCN(CC(=O)O)CC4)NC(=O)[C@@H](CNC(=O)c4ccc([Si](F)(C(C)(C)C)C(C)(C)C)cc4)NC(=O)CC[C@@H](NC(=O)N[C@H](CCC(=O)O)C(=O)O)C(=O)O)CC3)CC2)CC1)C(C)C)C(N)=O` (stereo partly drawn) [GT52] ({dE-CO-d(γGlu)}-[dDap](Benzoyl(4-SiFtBu2))[dDap](DOTAGA)[dD][X1][X1][X1][dF]QWAVGH[Sta]L-NH2), at GRPR (Table 6, natLu-labeled, [D-3-[125I]I-Tyr6]MJ9 (c = 0.2 nM), 2 h, r.t.), the “IC50 [nM], ^natLu-labeled (n = 3)” value is “comparable range”. In addition, the “log D7.4 (n = 6), ^177Lu-labeled” value in data set [1] (Table 6, 177Lu-labeled Bombesin-SiFA compounds) is on record as −2.05 ± 0.08. `CC(C)CC(CC(C)C)NC(=O)[C@H](Cc1c[nH]cn1)NC(=O)CNC(=O)[C@@H](NC(=O)[C@H](C)NC(=O)[C@H](Cc1csc2ccccc12)NC(=O)[C@H](CCC(N)=O)NC(=O)[C@@H](Cc1ccccc1)NC(=O)COCC(=O)Nc1ccc(CNC(=O)CN2CCN(CC(=O)O)CCN(CC(=O)O)CCN(CC(=O)O)CC2)cc1)C(C)C` [[Bta^8]NeoBOMB1] (X4-[dF]Q[Bta]AVGH-{NHCH(iBu)2}; N-terminus and C-terminus assumed): the “Amount of intact tracer after incubation in human plasma for 72 ± 2 h (n = 2)” value in data set [2] is listed as 36.2 ± 3.8. Moreover, the IC50 at GRPR (setting [3]) came out at 13 ± 3 nM. Turning to `CC(C)C[C@H](NC(=O)C[C@H](O)[C@H](CC(C)C)NC(=O)[C@H](Cc1c[nH]cn1)NC(=O)CNC(=O)[C@@H](NC(=O)[C@H](C)NC(=O)[C@](C)(Cc1c[nH]c2ccccc12)NC(=O)[C@H](CCC(N)=O)NC(=O)[C@@H](Cc1ccccc1)NC(=O)CN1CCC(NC(=O)CCC(C(=O)O)N2CCN(CC(=O)O)CCN(CC(=O)O)CCN(CC(=O)O)CC2)CC1)C(C)C)C(N)=O` (single isomer, unassigned) [AMTG2], the “log D7.4 ± SD (n = 8)” value in data set [1] (177Lu-labeled ligand, n-octanol/PBS pH 7.4) was −2.51 ± 0.11. Regarding `CC(C)C[C@H](NC(=O)C[C@H](O)[C@H](CC(C)C)NC(=O)[C@H](Cc1c[nH]cn1)NC(=O)CNC(=O)[C@@H](NC(=O)[C@H](C)NC(=O)[C@H](Cc1c[nH]c2ccccc12)NC(=O)[C@H](CCO)NC(=O)[C@@H](Cc1ccccc1)NC(=O)CN1CCC(NC(=O)CN2CCN(CC(=O)O)CCN(CC(=O)O)CCN(CC(=O)O)CC2)CC1)C(C)C)C(N)=O` [[^natGa]DOTA-[Hse^7]MJ9, metal not drawn], the IC50 on GRPR (read-out: IC50 ± SD (n = 3), Table 3, [D-3-[125I]I-Tyr6]MJ9 (c = 0.2 nM), 2 h, r.t., HBSS + 1% BSA) amounted to 12.2 ± 0.2 nM. Turning to `CC(C)CC(CC(C)C)NC(=O)[C@H](Cc1c[nH]cn1)NC(=O)CNC(=O)[C@@H](NC(=O)[C@H](C)NC(=O)[C@H](Cc1c[nH]c2ccccc12)NC(=O)[C@H](CCO)NC(=O)[C@@H](Cc1ccccc1)NC(=O)COCC(=O)Nc1ccc(CNC(=O)CN2CCN(CC(=O)O)CCN(CC(=O)O)CCN(CC(=O)O)CC2)cc1)C(C)C` [[Hse^7]NeoBOMB1] (X4-[dF][hSer]WAVGH-{NHCH(iBu)2}; N-terminus and C-terminus assumed), the “Amount of intact tracer after incubation in human plasma for 72 ± 2 h (n = 2)” value in data set [2] came to 57.4 ± 2.1. The IC50 on GRPR (setting [3]) was 8.3 ± 0.7 nM.
